Reference: US9695155B2, “Herbicidal substituted pyrimidinyloxy benzene compounds” (E. I. DU PONT DE NEMOURS AND COMPANY, priority 2013, dated 2017)

Assays:
barnyardgrass = test: Test C flooded paddy test; type: in vivo, Echinochloa crus-galli; conditions: Flood, scale 0 to 100 (0 no effect, 100 complete control), 13 to 15 days
Outline: (§1)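 Pots were flooded to 3 cm above the soil surface at treatment, compound applied directly to the paddy water, and that depth held throughout. Plants were kept in a greenhouse for 13 to 15 days, then visually rated against untreated controls.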

rice = test: Test C flooded paddy test; type: in vivo, Oryza sativa; conditions: Flood, scale 0 to 100 (0 no effect, 100 complete control), 13 to 15 days
Outline: as §1

velvetleaf = test: Test E preemergence; type: in vivo, Abutilon theophrasti; conditions: for Velvetleaf plant response rating: scale 0 to 100 (0 no effect, 100 complete control)
Outline: (§2)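 Compound in a non-phytotoxic solvent mixture with surfactant was applied preemergence to seeds in silt loam soil, or postemergence to plants 2 to 18 cm tall grown in peat-based potting medium. Plants were kept in a greenhouse for 14 to 21 days, then rated visually against untreated controls on a 0 (no effect) to 100 (complete control) scale.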

yellow nutsedge = test: Test E preemergence; type: in vivo, Cyperus esculentus; conditions: for Nutsedge, Yellow plant response rating: scale 0 to 100 (0 no effect, 100 complete control)
Outline: as §2

corn = test: Test E preemergence; type: in vivo, Zea mays; conditions: for Corn plant response rating: scale 0 to 100 (0 no effect, 100 complete control)
Outline: as §2

sandbur = test: Test E preemergence; type: in vivo, Cenchrus echinatus; conditions: for Sandbur plant response rating: scale 0 to 100 (0 no effect, 100 complete control)
Outline: as §2

large (Lg) crabgrass = test: Test E preemergence; type: in vivo, Digitaria sanguinalis; conditions: for Crabgrass, Large plant response rating: scale 0 to 100 (0 no effect, 100 complete control)
Outline: as §2

kochia = test: Test E preemergence; type: in vivo, Kochia scoparia; conditions: for Kochia plant response rating: scale 0 to 100 (0 no effect, 100 complete control)
Outline: as §2

lambsquarters = test: Test E preemergence; type: in vivo, Chenopodium album; conditions: for Lambsquarters plant response rating: scale 0 to 100 (0 no effect, 100 complete control)
Outline: as §2

wild poinsettia = test: Test E preemergence; type: in vivo, Euphorbia heterophylla; conditions: for Poinsettia, Wild plant response rating: scale 0 to 100 (0 no effect, 100 complete control)
Outline: as §2

ducksalad = test: Test C flooded paddy test; type: in vivo, Heteranthera limosa; conditions: Flood, scale 0 to 100 (0 no effect, 100 complete control), 13 to 15 days
Outline: as §1

green foxtail = test: Test E preemergence; type: in vivo, Setaria viridis; conditions: for Foxtail, Green plant response rating: scale 0 to 100 (0 no effect, 100 complete control)
Outline: as §2

Brazilian crabgrass = test: Test E preemergence; type: in vivo, Digitaria horizontalis; conditions: for Crabgrass, Brazil plant response rating: scale 0 to 100 (0 no effect, 100 complete control)
Outline: as §2

[1] = 125 g ai/ha, scale 0 to 100, 0 no effect, 100 complete control
[2] = 250 g ai/ha, scale 0 to 100, 0 no effect, 100 complete control
[3] = 8 g ai/ha, scale 0 to 100, 0 is no effect, 100 is complete control

## N#Cc1cccc(Oc2ncc(Br)cn2)c1-n1cc(C(F)(F)F)cn1 [Compound 59, 3-[(5-bromo-2-pyrimidinyl)oxy]-2-[4-(trifluoromethyl)-1H-pyrazol-1-yl]benzonitrile]
barnyardgrass; 31 g ai/ha
  Plant response rating, Barnyardgrass: 0
barnyardgrass; 62 g ai/ha
  Plant response rating, Barnyardgrass: 0
barnyardgrass; 125 g ai/ha
  Plant response rating, Barnyardgrass: 30
barnyardgrass; 250 g ai/ha
  Plant response rating, Barnyardgrass: 40
rice; 31 g ai/ha
  Plant response rating, Rice: 0
rice; 62 g ai/ha
  Plant response rating, Rice: 15
rice; 125 g ai/ha
  Plant response rating, Rice: 20
rice; 250 g ai/ha
  Plant response rating, Rice: 20
velvetleaf; 16 g ai/ha
  Velvetleaf plant response rating: 0
velvetleaf; 31 g ai/ha
  Velvetleaf plant response rating: 25
velvetleaf; 62 g ai/ha
  Velvetleaf plant response rating: 75
velvetleaf; [1]
  Plant response rating, Velvetleaf: 100
velvetleaf; [2]
  Plant response rating, Velvetleaf: 100
Yellow nutsedge; 16 g ai/ha
  Nutsedge, Yellow plant response rating: 0
Yellow nutsedge; 31 g ai/ha
  Nutsedge, Yellow plant response rating: 0
Yellow nutsedge; 62 g ai/ha
  Nutsedge, Yellow plant response rating: 0
Yellow nutsedge; [1]
  Plant response rating, Nutsedge, Yellow: 30
Yellow nutsedge; [2]
  Plant response rating, Nutsedge, Yellow: 50
corn; 16 g ai/ha
  Corn plant response rating: 0
corn; 31 g ai/ha
  Corn plant response rating: 0
corn; 62 g ai/ha
  Corn plant response rating: 0
corn; [1]
  Plant response rating, Corn: 30
corn; [2]
  Plant response rating, Corn: 50
sandbur; 16 g ai/ha
  Sandbur plant response rating: 0
sandbur; 31 g ai/ha
  Sandbur plant response rating: 15
sandbur; 62 g ai/ha
  Sandbur plant response rating: 30
sandbur; [1]
  Plant response rating, Sandbur: 50
sandbur; [2]
  Plant response rating, Sandbur: 95
Large (Lg) crabgrass; 16 g ai/ha
  Crabgrass, Large plant response rating: 5
Large (Lg) crabgrass; 31 g ai/ha
  Crabgrass, Large plant response rating: 95
Large (Lg) crabgrass; 62 g ai/ha
  Crabgrass, Large plant response rating: 100
Large (Lg) crabgrass; [1]
  Plant response rating, Crabgrass, Large: 100
Large (Lg) crabgrass; [2]
  Plant response rating, Crabgrass, Large: 100
kochia; 16 g ai/ha
  Kochia plant response rating: 20
kochia; 31 g ai/ha
  Kochia plant response rating: 80
kochia; 62 g ai/ha
  Kochia plant response rating: 100
kochia; [1]
  Plant response rating, Kochia: 100
kochia; [2]
  Plant response rating, Kochia: 100
lambsquarters; 16 g ai/ha
  Lambsquarters plant response rating: 98
lambsquarters; 31 g ai/ha
  Lambsquarters plant response rating: 98
lambsquarters; 62 g ai/ha
  Lambsquarters plant response rating: 100
lambsquarters; [1]
  Plant response rating, Lambsquarters: 100
lambsquarters; [2]
  Plant response rating, Lambsquarters: 100
Wild poinsettia; 16 g ai/ha
  Poinsettia, Wild plant response rating: 0
Wild poinsettia; 31 g ai/ha
  Poinsettia, Wild plant response rating: 0
Wild poinsettia; 62 g ai/ha
  Poinsettia, Wild plant response rating: 10
Wild poinsettia; [1]
  Plant response rating, Poinsettia, Wild: 20
Wild poinsettia; [2]
  Plant response rating, Poinsettia, Wild: 100
ducksalad; 31 g ai/ha
  Plant response rating, Ducksalad: 50
ducksalad; 62 g ai/ha
  Plant response rating, Ducksalad: 75
ducksalad; 125 g ai/ha
  Plant response rating, Ducksalad: 95
ducksalad; 250 g ai/ha
  Plant response rating, Ducksalad: 95
Green foxtail; 16 g ai/ha
  Foxtail, Green plant response rating: 0
Green foxtail; 31 g ai/ha
  Foxtail, Green plant response rating: 60
Green foxtail; 62 g ai/ha
  Foxtail, Green plant response rating: 100
Green foxtail; [1]
  Plant response rating, Foxtail, Green: 100
Green foxtail; [2]
  Plant response rating, Foxtail, Green: 100
Brazilian crabgrass; 16 g ai/ha
  Crabgrass, Brazil plant response rating: 80
Brazilian crabgrass; 31 g ai/ha
  Crabgrass, Brazil plant response rating: 100
Brazilian crabgrass; 62 g ai/ha
  Crabgrass, Brazil plant response rating: 100
Brazilian crabgrass; [1]
  Plant response rating, Crabgrass, Brazil: 100
Brazilian crabgrass; [2]
  Plant response rating, Crabgrass, Brazil: 100

## Fc1cccc(Oc2ncc(Cl)cn2)c1-n1cc(I)cn1 [Compound 179]
barnyardgrass; 31 g ai/ha
  Plant response rating, Barnyardgrass: 0
barnyardgrass; 62 g ai/ha
  Plant response rating, Barnyardgrass: 0
barnyardgrass; 125 g ai/ha
  Plant response rating, Barnyardgrass: 0
barnyardgrass; 250 g ai/ha
  Plant response rating, Barnyardgrass: 0
rice; 31 g ai/ha
  Plant response rating, Rice: 0
rice; 62 g ai/ha
  Plant response rating, Rice: 0
rice; 125 g ai/ha
  Plant response rating, Rice: 10
rice; 250 g ai/ha
  Plant response rating, Rice: 10
velvetleaf; [3]
  Plant response rating, Velvetleaf: 20
velvetleaf; 62 g ai/ha
  Velvetleaf plant response rating: 100
velvetleaf; [1]
  Plant response rating, Velvetleaf: 100
Yellow nutsedge; [3]
  Plant response rating, Nutsedge, Yellow: 0
Yellow nutsedge; 62 g ai/ha
  Nutsedge, Yellow plant response rating: 30
Yellow nutsedge; [1]
  Plant response rating, Nutsedge, Yellow: 30
corn; [3]
  Plant response rating, Corn: 0
corn; 16 g ai/ha
  Corn plant response rating: 0
corn; 62 g ai/ha
  Corn plant response rating: 0
corn; [1]
  Plant response rating, Corn: 0
sandbur; [3]
  Plant response rating, Sandbur: 0
sandbur; 62 g ai/ha
  Sandbur plant response rating: 15
sandbur; [1]
  Plant response rating, Sandbur: 15
Large (Lg) crabgrass; [3]
  Plant response rating, Crabgrass, Large: 0
Large (Lg) crabgrass; 16 g ai/ha
  Crabgrass, Large plant response rating: 0
Large (Lg) crabgrass; 62 g ai/ha
  Crabgrass, Large plant response rating: 75
Large (Lg) crabgrass; [1]
  Plant response rating, Crabgrass, Large: 98
kochia; [3]
  Plant response rating, Kochia: 0
kochia; 62 g ai/ha
  Kochia plant response rating: 25
kochia; [1]
  Plant response rating, Kochia: 75
lambsquarters; [3]
  Plant response rating, Lambsquarters: 0
lambsquarters; 62 g ai/ha
  Lambsquarters plant response rating: 95
lambsquarters; [1]
  Plant response rating, Lambsquarters: 100
Wild poinsettia; [3]
  Plant response rating, Poinsettia, Wild: 0
Wild poinsettia; 62 g ai/ha
  Poinsettia, Wild plant response rating: 30
Wild poinsettia; [1]
  Plant response rating, Poinsettia, Wild: 35
ducksalad; 31 g ai/ha
  Plant response rating, Ducksalad: 20
ducksalad; 62 g ai/ha
  Plant response rating, Ducksalad: 60
ducksalad; 125 g ai/ha
  Plant response rating, Ducksalad: 85
ducksalad; 250 g ai/ha
  Plant response rating, Ducksalad: 95
Green foxtail; [3]
  Plant response rating, Foxtail, Green: 0
Green foxtail; 16 g ai/ha
  Foxtail, Green plant response rating: 0
Green foxtail; 62 g ai/ha
  Foxtail, Green plant response rating: 25
Green foxtail; [1]
  Plant response rating, Foxtail, Green: 100
Brazilian crabgrass; [3]
  Plant response rating, Crabgrass, Brazil: 0
Brazilian crabgrass; 16 g ai/ha
  Crabgrass, Brazil plant response rating: 0
Brazilian crabgrass; 62 g ai/ha
  Crabgrass, Brazil plant response rating: 65
Brazilian crabgrass; [1]
  Plant response rating, Crabgrass, Brazil: 100
